# Results published in patent publication US20040156816A1, “Lipid-drug complexes in reversed liquid and liquid crystalline phases” (priority 2002, published 2004).
# Details: free acid ion-paired with arginine in Arlatone G / ginger oil / water cubic phase; overlain with large excess of water; two days
# Source text: The antiosteolytic drug Alendronate (as the free acid) was incorporated into a cubic phase based on the ethoxylated, hydrogenated castor oil surfactant Arlatone G (from Uniquema).
smiles,measurement,value
"NCCCC(O)(P(=O)(O)O)P(=O)(O)O [alendronate, Alendronate]",amount of alendronate which leaked out of the cubic phase into the water,undetectable
